From patent publication US9975885B2, “Broad-spectrum non-covalent coronavirus protease inhibitors” (priority 2016, dated 2018)

Key:
[1] = target: HKU4-3CL^pro (Bat coronavirus HKU4 (BtCoV) (BtCoV/HKU4/2004), UniProt P0C6W3); format: biochemical
[2] = target: FIPV-3CL^pro (Feline coronavirus (strain FIPV WSU-79/1146) (FCoV), UniProt Q98VG9); assay: biochemical
[3] = target: OC43-3CL^pro (Human coronavirus OC43 (HCoV-OC43), UniProt P0C6X6); format: biochemical
[4] = test system: Ten CoV 3CL^pro's (FIPV-, PEDV-, NL63-, HKU1-, OC43-, SARS-, HKU4-, HKU5-, HKU9-, IBV-3CL^pro); format: biochemical, coronaviruses (α-, β-, γ-CoV)
[5] = target: PEDV-3CL^pro (Porcine epidemic diarrhea virus (strain CV777) (PEDV), UniProt P0C6Y4); assay: biochemical; conditions: for inhibition at 100 µM: read-out: inhibition of PEDV-3CL^pro
Sequence of PEDV-3CL^pro (P0C6Y4 2998-3299 limits assumed): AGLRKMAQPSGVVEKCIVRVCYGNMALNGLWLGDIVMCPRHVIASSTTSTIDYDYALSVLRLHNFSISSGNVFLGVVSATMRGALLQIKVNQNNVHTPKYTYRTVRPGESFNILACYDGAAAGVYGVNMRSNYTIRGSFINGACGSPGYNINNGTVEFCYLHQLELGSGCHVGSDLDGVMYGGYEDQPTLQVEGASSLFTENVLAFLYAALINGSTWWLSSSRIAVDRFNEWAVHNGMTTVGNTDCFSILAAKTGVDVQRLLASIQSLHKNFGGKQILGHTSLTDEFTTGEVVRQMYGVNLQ

[6] = target: SARS-3CL^pro (Severe acute respiratory syndrome coronavirus (SARS-CoV), UniProt P0C6X7); format: biochemical
[7] = target: HKU1-3CL^pro (Human coronavirus HKU1 (isolate N1) (HCoV-HKU1), UniProt P0C6X2); assay: biochemical
Sequence of HKU1-3CL^pro (P0C6X2 3335-3637 limits assumed): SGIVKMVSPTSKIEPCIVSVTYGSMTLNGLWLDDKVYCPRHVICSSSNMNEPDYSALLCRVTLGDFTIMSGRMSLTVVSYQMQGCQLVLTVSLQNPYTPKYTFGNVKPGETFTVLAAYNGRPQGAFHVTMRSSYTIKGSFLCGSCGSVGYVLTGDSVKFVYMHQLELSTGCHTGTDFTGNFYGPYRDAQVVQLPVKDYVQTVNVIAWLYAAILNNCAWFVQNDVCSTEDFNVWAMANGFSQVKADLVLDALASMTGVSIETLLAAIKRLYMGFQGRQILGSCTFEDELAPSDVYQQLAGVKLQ

[8] = target: HKU5-3CL^pro (Bat coronavirus HKU5 (BtCoV) (BtCoV/HKU5/2004), UniProt P0C6W4); format: biochemical
Sequence of HKU5-3CL^pro (P0C6W4 3339-3644 limits assumed): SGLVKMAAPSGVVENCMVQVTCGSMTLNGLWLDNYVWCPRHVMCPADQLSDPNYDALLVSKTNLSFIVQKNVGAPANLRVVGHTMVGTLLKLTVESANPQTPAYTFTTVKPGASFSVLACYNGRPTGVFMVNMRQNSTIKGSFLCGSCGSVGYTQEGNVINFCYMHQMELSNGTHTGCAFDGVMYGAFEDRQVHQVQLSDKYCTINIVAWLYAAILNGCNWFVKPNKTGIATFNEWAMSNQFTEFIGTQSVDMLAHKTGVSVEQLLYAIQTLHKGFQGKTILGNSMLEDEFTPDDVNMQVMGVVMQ

[9] = target: NL63-3CL^pro (Human coronavirus NL63 (HCoV-NL63), UniProt P0C6X5); assay: biochemical
Sequence of NL63-3CL^pro (P0C6X5 2940-3242 limits assumed): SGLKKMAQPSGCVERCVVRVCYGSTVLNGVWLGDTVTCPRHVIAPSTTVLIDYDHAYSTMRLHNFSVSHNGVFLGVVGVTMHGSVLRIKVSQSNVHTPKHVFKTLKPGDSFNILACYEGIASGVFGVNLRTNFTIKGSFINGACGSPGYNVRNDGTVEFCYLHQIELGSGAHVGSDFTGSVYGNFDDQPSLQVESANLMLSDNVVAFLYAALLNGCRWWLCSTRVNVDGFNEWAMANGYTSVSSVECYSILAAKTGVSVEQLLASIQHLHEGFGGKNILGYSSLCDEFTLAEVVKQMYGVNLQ

[10] = target: HKU9-3CL^pro (Bat coronavirus HKU9 (BtCoV) (BtCoV/HKU9), UniProt P0C6W5); format: biochemical
Sequence of HKU9-3CL^pro (P0C6W5 3104-3409 limits assumed): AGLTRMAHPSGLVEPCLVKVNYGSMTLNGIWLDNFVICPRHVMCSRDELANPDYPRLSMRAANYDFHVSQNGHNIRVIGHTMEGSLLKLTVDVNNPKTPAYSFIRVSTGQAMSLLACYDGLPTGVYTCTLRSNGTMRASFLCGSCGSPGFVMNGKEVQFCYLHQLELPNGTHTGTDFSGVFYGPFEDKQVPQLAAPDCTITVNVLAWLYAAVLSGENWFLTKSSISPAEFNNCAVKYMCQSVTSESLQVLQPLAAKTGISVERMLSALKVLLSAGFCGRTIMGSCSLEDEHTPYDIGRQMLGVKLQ

[11] = target: IBV-3CL^pro (Avian infectious bronchitis virus (strain Beaudette) (IBV), UniProt P0C6Y1); format: biochemical
Sequence of IBV-3CL^pro (P0C6Y1 2780-3086 limits assumed): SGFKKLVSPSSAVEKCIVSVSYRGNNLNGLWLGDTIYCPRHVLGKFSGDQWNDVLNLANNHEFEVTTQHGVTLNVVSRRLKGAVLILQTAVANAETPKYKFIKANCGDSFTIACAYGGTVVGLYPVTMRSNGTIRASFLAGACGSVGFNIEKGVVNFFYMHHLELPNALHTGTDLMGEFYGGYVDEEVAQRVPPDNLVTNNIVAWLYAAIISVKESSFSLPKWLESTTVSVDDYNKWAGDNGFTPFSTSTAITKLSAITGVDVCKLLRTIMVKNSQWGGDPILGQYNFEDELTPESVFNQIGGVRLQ

Sequence of OC43-3CL^pro (P0C6X6 3247-3549 limits assumed): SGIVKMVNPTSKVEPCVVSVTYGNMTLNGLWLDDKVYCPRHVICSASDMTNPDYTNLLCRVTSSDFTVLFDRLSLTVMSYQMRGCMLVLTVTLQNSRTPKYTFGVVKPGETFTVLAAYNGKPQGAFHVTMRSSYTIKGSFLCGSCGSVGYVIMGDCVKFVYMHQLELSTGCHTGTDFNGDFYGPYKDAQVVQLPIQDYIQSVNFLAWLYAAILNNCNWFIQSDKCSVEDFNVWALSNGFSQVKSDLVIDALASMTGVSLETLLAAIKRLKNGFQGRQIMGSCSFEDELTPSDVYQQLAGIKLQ
Sequence of HKU4-3CL^pro (P0C6W3 3292-3597 limits assumed): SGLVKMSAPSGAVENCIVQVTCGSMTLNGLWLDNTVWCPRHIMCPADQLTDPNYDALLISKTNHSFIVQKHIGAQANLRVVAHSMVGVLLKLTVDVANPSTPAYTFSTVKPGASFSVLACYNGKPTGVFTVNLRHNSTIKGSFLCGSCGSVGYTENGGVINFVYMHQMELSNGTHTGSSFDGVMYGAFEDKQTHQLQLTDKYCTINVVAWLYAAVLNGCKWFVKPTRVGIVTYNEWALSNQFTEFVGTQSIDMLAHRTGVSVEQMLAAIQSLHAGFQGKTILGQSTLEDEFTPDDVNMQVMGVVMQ
Sequence of FIPV-3CL^pro (Q98VG9 2904-3205 limits assumed): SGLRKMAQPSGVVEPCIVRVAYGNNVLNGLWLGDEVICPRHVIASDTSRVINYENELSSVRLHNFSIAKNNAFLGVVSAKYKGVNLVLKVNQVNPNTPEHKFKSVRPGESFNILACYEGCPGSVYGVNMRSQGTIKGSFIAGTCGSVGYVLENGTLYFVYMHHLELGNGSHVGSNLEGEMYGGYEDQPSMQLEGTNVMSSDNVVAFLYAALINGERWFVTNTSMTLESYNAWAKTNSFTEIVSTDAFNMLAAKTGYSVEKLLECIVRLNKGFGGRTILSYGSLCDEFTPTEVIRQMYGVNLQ

Row | SMILES | IC50 [1] [µM] | IC50 [2] [µM] | IC50 [3] [µM] | Gini Coefficient [4] | Score (performance metric score) [4] | IC50 [5] [µM] | IC50 [6] [µM] | IC50 [7] [µM] | IC50 [8] [µM] | inhibition of NL63-3CL^pro [9] | IC50 [10] [µM] | IC50 [9] [µM] | inhibition at 100 µM ([2]; read-out: inhibition of FIPV-3CL^pro) [%] | inhibition at 100 µM [5] [%] | inhibition of γ-CoV IBV-3CL^pro [11] | inhibition at 100 µM ([9]; read-out: inhibition of NL63-3CL^pro) [%] | inhibition at 100 µM ([7]; read-out: inhibition of HKU1-3CL^pro) [%]
1 | CC(C)Cc1ccc(N(C(=O)c2c[nH]cn2)C(C(=O)NC(C)(C)C)c2cccnc2)cc1 (stereo not shown) [Compound 38, N-(2-(tert-butylamino)-2-oxo-1-(pyridin-3-yl)ethyl)-N-(4-isobutylphenyl)-1H-imidazole-4-carboxamide] | 7.7 ± 0.7 | 61.1 ± 13.9 | 24.4 ± 3.1 | 0.21 | 4.5 | 15.5 ± 1.8 | 7 ± 0.6 | 15.4 ± 1.5 | 10.9 ± 0.9 | not tolerated | 18 ± 3.3 | – | – | – | – | – | –
2 | CC(C)(C)c1ccc(N(C(=O)c2c[nH]cn2)C(C(=O)NC2CCCC2)c2cccnc2)cc1 (stereo not shown) [Compound 47, N-(4-(tert-butyl)phenyl)-N-(2-(cyclopentylamino)-2-oxo-1-(pyridin-3-yl)ethyl)-1H-imidazole-4-carboxamide] | 1.9 ± 0.1 | 6.9 ± 0.5 | 7.7 ± 0.8 | – | – | 0.7 ± 0.03 | 1.7 ± 0.2 | 3.4 ± 0.4 | 2.5 ± 0.2 | – | 6.4 ± 0.5 | 6.3 ± 0.5 | – | – | – | – | –
3 | CC(C)(C)NC(=O)C(c1ccsc1)N(C(=O)Cn1nnc2ccccc21)c1ccc(NC(=O)C2CC2)cc1 (stereo not shown) [Compound 2P, reference compound] | 3.8 ± 0.3 | – | 24.4 ± 3.5 | 0.29 | 8.5 | – | – | – | 3.5 ± 0.5 | – | – | – | ≤ 50 | ≤ 50 | no compound, including the parent compounds 1P, 2P, and 3P, was found to be capable of inhibiting | ≤ 50 | –
4 | CC(C)C(=O)Nc1ccc(N(C(=O)Cn2nnc3ccccc32)C(C(=O)NCc2ccccc2)c2cccc(F)c2)cc1 (stereo not shown) [Compound 1P, reference compound] | – | 6.7 ± 0.7 | 6.9 ± 0.9 | 0.31 | 5.7 | – | 1.6 ± 0.2 | – | 1.2 ± 0.1 | – | – | – | – | ≤ 50 | no compound, including the parent compounds 1P, 2P, and 3P, was found to be capable of inhibiting | – | ≤ 50
5 | CC(C)(C)NC(=O)C(c1cccnc1)N(C(=O)c1c[nH]cn1)c1ccc(C(C)(C)C)cc1 (stereo not shown) [Compound 3P, reference compound] | – | – | – | 0.13 | 2.7 | – | – | – | – | – | – | – | – | – | no compound, including the parent compounds 1P, 2P, and 3P, was found to be capable of inhibiting | – | –
6 | CC(C)(C)c1ccc(N(C(=O)c2c[nH]cn2)C(C(=O)NCc2ccccc2)c2cccnc2)cc1 (stereo not shown) [Compound 48, N-(2-(benzylamino)-2-oxo-1-(pyridin-3-yl)ethyl)-N-(4-(tert-butyl)phenyl)-1H-imidazole-4-carboxamide] | 26.1 ± 2.1 | 19 ± 1.7 | 46.5 ± 8 | 0.17 | 3.5 | 3.4 ± 0.4 | 6.6 ± 0.8 | 8 ± 1.5 | 24.8 ± 2.9 | – | 40.4 ± 8.7 | 26.4 ± 4.2 | – | – | – | – | –
